Experiments:
MV-4-11 [1] = test: Proliferation assay A (spheroid assay) MV-4-11; format: cell-based, human; conditions: MV-4-11 cells, 8 d, AUC of confluence against time, absolute IC50, read-out: (3a) Spheroid assay MV-4-11 (IC50(μM)) Assay A
Outline: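 Spheroid growth in ultra-low-attachment round-bottom wells (1,500 MV-4-11, 300 MOLM14 or 750 K562 cells), compound titration at 0.3% DMSO, 8 d at 37° C. Confluence imaged every 4 h; AUC from t=0 baseline expressed as % of DMSO control and fitted for absolute IC50.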

MV-4-11 [2] = test: Proliferation assay B (spheroid assay) MV-4-11; format: cell-based, human; conditions: Homo sapiens, MV4-11, 192 h, MV-4-11 cells, confluence at day 8, absolute IC50; read-out: (3b) Spheroid assay MV-4--11 (IC50(μM)) Assay B
Outline: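 Leukemia cells grown as spheroids in ultra-low-attachment round-bottom wells with compound at 0.3% DMSO for 8 d at 37 °C. Confluence imaged at day 8 as spheroid size, normalized between DMSO and 1 μM staurosporine controls; absolute IC50 from sigmoidal fit with bounds fixed at 0 and 100%.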

| IC50 (MV-4-11 [1]; Homo sapiens, MV4-11, 192 h) [µM] | IC50 (MV-4-11 [2]) [µM] | IC50 (MV-4-11 [1]) [µM] | Compound |
| --- | --- | --- | --- |
| 0.16 | 0.26 |  | Cn1c(=O)[nH]c2cc(CNC3CCC4(C3)CN(c3ncnc5sc(CC(F)(F)F)cc35)C4)ccc21 (centres unmarked) [Compound 54] |
| 2.13 | 2.62 |  | FC(F)(F)Cc1cc2c(N3CCC4(CC(Nc5ccc6cc[nH]c6c5)C4)C3)ncnc2s1 (mixture of isomers) [Compound 311] |
| 0.09 | 0.16 |  | CNC(=O)c1ccc(NC2CC3(CCN(c4ncnc5sc(CC(F)(F)F)cc45)C3)C2)cc1 (centres unmarked) [Compound 93] |
|  | 0.11 | 0.03 | O=c1[nH]c2cc(CNC3CCC4(C3)CN(c3ncnc5sc(CC(F)(F)F)cc35)C4)ccc2o1 (single isomer, unassigned) [Compound 58] |

From patent US11396517B1, “Exo-aza spiro inhibitors of menin-MLL interaction” (Janssen Pharmaceutica NV, priority 2017, dated 2022)
